According to patent publication US10160867B2, “Benzoxaborole-containing coating resistant to cellulose-supportable fungus” (THE PENN STATE RESEARCH FOUNDATION, priority 2015, dated 2018):
Converted amounts (≈) assume the structure as drawn.

Assays:
Fusarium oxysparum ST-33 = assay: 3 day MIC, broth microdilution in 25% PDB; type: cell-based; conditions: ST33, 72 h
Experimental: (§1) Stock solutions (concentrations of between 4,000 μg/mL to 10,000 μg/mL; stored at −18° C.) of the above antifungals were prepared in dimethyl sulfoxide (DMSO). The stock solutions were further diluted into sterile 25% potato dextrose broth (PDB) so that the diluted solutions could be used for the antifungal susceptibility studies. This way, a typical microdilution study would reach a final ratio of about 0.5-2% v/v of DMSO in 25% PDB.
(§2) Spore inocula were prepared in sterile distilled water with 0.1% Tween® 20 (a polysorbate surfactant), and a hemocytometer was used to determine the spore density. Typically, the spore inoculum was prepared fresh prior to each study, and the inoculum was appropriately diluted to a final concentration of 0.4-1×10^5 spores/mL or colony-forming unit (CFU)/mL in each study. The spore suspension can be stored in a refrigerator at 4° C. for up to one week.
(§3) The minimal inhibitory concentrations (MICs) for individual antifungal agents were determined by following a modified broth microdilution protocol CLSI (Clinical and Laboratory Standards Institute) M38-A2 [Clinical and Laboratory Standards Institute (2008) Reference method for broth dilution antifungal susceptibility testing of filamentous fungi—2nd edition: Approved Standard M38-A2, CLSI, Wayne, Pa.] where 25% potato dextrose broth (PDB) was used as the medium. The studies were performed in flat bottom, 96-well microtiter plates (Greiner Bio-One, Frickenhausen, Germany).
(§4) Plates sealed with clear polyester film (VWR, Radnor, Pa.) were incubated at a temperature of about 25° C. The progress of fungal growth was monitored at 48 hours and 72 hours.

Mucor spp. = assay: 3 day MIC, broth microdilution in 25% PDB; type: cell-based; conditions: 72 h
Experimental: as §1, §2, §3, §4

Aspergillus flavus = assay: 3 day MIC, broth microdilution in 25% PDB; type: cell-based; conditions: 72 h
Experimental: as §1, §2, §3, §4

Rhizopus spp. = assay: 3 day MIC, broth microdilution in 25% PDB; type: cell-based; conditions: 72 h
Experimental: as §1, §2, §3, §4

Aspergillus fumigatus = assay: 3 day MIC, broth microdilution in 25% PDB; type: cell-based; conditions: for MIC: 72 h
Experimental: as §1, §2, §3, §4

Aureobasidium pullulans = assay: 3 day MIC, broth microdilution in 25% PDB; type: cell-based; conditions: 72 h
Experimental: as §1, §2, §3, §4

Aspergillus niger = assay: 3 day MIC, broth microdilution in 25% PDB; type: cell-based; conditions: 72 h
Experimental: as §1, §2, §3, §4

[1] = commercially available fungicidal agents; cited from earlier work
Stachybotrys chartarum = assay: Fungus resistance test after painting over fungal growth (defacement rating); type: cell-based; conditions: painted over fungal growth
From the text: (§5) In this series of experiments, fungal growth was allowed to cover a painted surface (surface containing 2 coats of the unaltered paint) to a defacement rating of 3-5, forming a ‘contaminated surface’. […] The paint application was extended approximately 1-2 cm beyond the edge of the disc onto the NSA medium. Each formulation used a separate brush to avoid cross contamination. The re-painted discs were placed back into the humid environment with elevated temperature to encourage fungal growth.
(§6) This test was used to evaluate the ability of paint films containing antifungal additives to prevent the re-emergence of fungal growth after painting over existing growth.
(§7) Olympic® Home interior flat latex paint (PPG Industries, Pittsburgh, Pa.) and Valspar® QuikHide White flat interior paint (Valspar Corporation, Minneapolis, Minn.) were used for the experiments in this study unless specified. Stock solutions of the antifungal additives of interest were prepared in reagent grade dimethyl sulfoxide (DMSO; Alfa Aesar, Ward Hill, Mass.). Additives were spiked (by adding appropriate amounts of the antifungal stock solutions) into the liquid paint at specified concentrations. Samples of additive-spiked paint were vigorously mixed with a vortex mixer for at least one minute to insure uniform dispersion of the additive in the paint. […] Studies that used other brands of paint followed the same protocol as described for those using the Olympic® Home interior flat latex paint.
(§8) Test surfaces were prepared in triplicate. In most cases, the tested conditions were repeated on a different date, again in triplicate. […] Two coats of paint were applied with a polyester brush to completely cover both faces of the filter paper disc, allowing at least four hours drying time between coats.
(§9) Nutrient-Salts Agar (NSA) media was prepared according to ASTM method G21-13 in 100×15 mm sterile polystyrene petri dishes (VWR® Radnor, Pa.) with a solidified agar layer from 3 to 6 mm (⅛ to ¼ in.) in depth. The agar was allowed to solidify for at least 24 hours before being used. The painted test filter paper discs were placed in the center of the agar plates in a biosafety hood while wearing clean nitrile gloves.
(§10) The paint coatings were evaluated against three representative fungi: Stachybotrys chartarum, Penicillium chrysogenum, and Alternaria alternata. […] Fungal isolates of Alternaria alternata and Penicillium chrysogenum were obtained from the Plant Pathology and Environmental Microbiology Department at Penn State University.
(§11) A spore suspension of each of these fungi was prepared by pouring a 20-mL portion of autoclaved deionized water containing 0.01% Tween® 20 onto a subculture of each fungal species. Spores were counted with the use of a hemocytometer (Hausser Scientific, Horsham, Pa.) under a microscope. Spore suspensions of Stachybotrys chartarum and Penicillium chrysogenum were diluted to 1×10^6 spores/mL with autoclaved deionized water. Spore suspensions of Alternaria alternata were used “as is” in the range of 200,000 to 400,000 spores/mL.
(§12) Painted test surfaces were inoculated with a spray bottle or with a cotton-tipped applicator. To inoculate the sample with a spray bottle, the spore suspension was sprayed twice on the painted test discs with a spray bottle that delivered approximately 0.14 g of fluid per spray. To inoculate the sample with a cotton-tipped applicator, an autoclaved cotton-tipped applicator was submerged in approximately 400 μL of the inoculum solution and applied evenly over the surface of the painted test surface twice.

Penicillium chrysogenum = assay: as above; type: cell-based; conditions: painted over fungal growth, +200 μg/mL in Valspar QuikHide paint
From the text: as §5, §6, §7, §8, §9, §10, §11, §12

Alternaria alternata = assay: as above; type: cell-based; conditions: painted over fungal growth
From the text: as §5, §6, §7, §8, §9, §10, §11, §12

[2] = tested on: Cladosporium cladosporioides; assay: 3 day MIC, broth microdilution in 25% PDB; type: cell-based; conditions: 72 h
Experimental: as §1, §2, §3, §4

[3] = +100 μg/mL in Olympic Home paint, 7 days
[4] = +100 μg/mL in Olympic Home paint, 14 days
[5] = +100 μg/mL in Olympic Home paint, 21 days
[6] = +200 μg/mL in Olympic Home paint, 7 days
[7] = +200 μg/mL in Olympic Home paint, 14 days
[8] = +200 μg/mL in Olympic Home paint, 21 days

Row | SMILES | MIC (Fusarium oxysparum ST-33) | MIC (Mucor spp.) | MIC (Aspergillus flavus) | MIC (Rhizopus spp.) | MIC (Aspergillus fumigatus) | MIC (Aureobasidium pullulans) | MIC (Aspergillus niger) | Solubility in water [1] | Average defacement rating ± standard deviation (Stachybotrys chartarum; [3]) | Average defacement rating ± standard deviation (Stachybotrys chartarum; [4]) | Average defacement rating ± standard deviation (Stachybotrys chartarum; [5]) | Average defacement rating ± standard deviation (Penicillium chrysogenum; 7 days) | Average defacement rating ± standard deviation (Penicillium chrysogenum; 14 days) | Average defacement rating ± standard deviation (Penicillium chrysogenum; 21 days) | Average defacement rating ± standard deviation (Alternaria alternata; [3]) | Average defacement rating ± standard deviation (Alternaria alternata; [4]) | Average defacement rating ± standard deviation (Alternaria alternata; [5]) | other results
1 | O=C1C2CC=CCC2C(=O)N1SC(Cl)(Cl)Cl (stereo not drawn) [Captan] | 2 µg/mL (≈ 6.65 µM) | 3.1 µg/mL (≈ 10.3 µM) | 25 µg/mL (≈ 83.2 µM) | 12.5 µg/mL (≈ 41.6 µM) | 12.5 µg/mL (≈ 41.6 µM) | 0.8 µg/mL (≈ 2.66 µM) | 16 µg/mL (≈ 53.2 µM) | 3.3 mg/L (≈ 11 µM) | 0.0 ± 0.0 (6) | 0.0 ± 0.0 (6) | 0.0 ± 0.0 (6) | 0.0 ± 0.0 (9) | 0.0 ± 0.0 (9) | 0.0 ± 0.0 (9) | 3.6 ± 3.9 (9) | 2.5 ± 4.0 (9) | 2.4 ± 3.8 (9) | 
2 | N#Cc1c(Cl)c(Cl)c(Cl)c(C#N)c1Cl [Chlorothalonil, chlorothalonil] |  | 0.8 µg/mL (≈ 3.01 µM) | 0.2 µg/mL (≈ 0.752 µM) | 0.8 µg/mL (≈ 3.01 µM) | 0.2 µg/mL (≈ 0.752 µM) |  | 0.4 µg/mL (≈ 1.5 µM) | <100 mg/L | 2.2 ± 2.1 (9) | 2.0 ± 1.7 (9) | 2.0 ± 1.7 (9) | 0.0 ± 0.0 (9) | 0.0 ± 0.0 (9) | 0.0 ± 0.0 (9) |  |  |  | Average defacement rating ± standard deviation (Alternaria alternata; +1000 μg/mL in Olympic Home paint, 7 days): 0.5 ± 1.4 (9); Average defacement rating ± standard deviation (Alternaria alternata; +1000 μg/mL in Olympic Home paint, 14 days): 0.2 ± 0.5 (9); Average defacement rating ± standard deviation (Alternaria alternata; +1000 μg/mL in Olympic Home paint, 21 days): 0.1 ± 0.3 (9)
3 | OB1OCc2cc(Cl)ccc21 [Compound B8, 5-chloro-1,3-dihydro-2,1-benzoxaborol-1-ol] | 0.25 µg/mL (≈ 1.48 µM) | 0.5 µg/mL (≈ 2.97 µM) | 1 µg/mL (≈ 5.94 µM) | 4 µg/mL (≈ 23.8 µM) | 0.5 µg/mL (≈ 2.97 µM) | 0.125 µg/mL (≈ 0.742 µM) | 0.25 µg/mL (≈ 1.48 µM) |  | 7.0 ± 1.9 (9) | 6.4 ± 2.6 (9) |  | 2.3 ± 0.6 (9) | 0.0 ± 0.0 (9) | 0.0 ± 0.0 (9) |  | 3.4 ± 2.9 (9) | 3.0 ± 2.8 (9) | MIC [2]: 0.1 µg/mL (≈ 0.594 µM); Average defacement rating ± standard deviation (Alternaria alternata; [6]): 9.3 ± 1.2 (3); Average defacement rating ± standard deviation (Alternaria alternata; [7]): 7.3 ± 2.9 (3); Average defacement rating ± standard deviation (Alternaria alternata; [8]): 3.0 ± 0.9 (3)
4 | OB1OCc2cc(F)ccc21 [Compound B9, 5-Fluoro-1,3-dihydro-2,1-benzoxaborol-1-ol] | 0.25 µg/mL (≈ 1.65 µM) | 0.25 µg/mL (≈ 1.65 µM) | 1 µg/mL (≈ 6.58 µM) | 0.5 µg/mL (≈ 3.29 µM) | 0.5 µg/mL (≈ 3.29 µM) | 0.125 µg/mL (≈ 0.823 µM) | 0.25 µg/mL (≈ 1.65 µM) |  | 7.2 ± 2.6 (9) | 1.3 ± 3.0 (9) | 1.0 ± 2.8 (9) | 8.7 ± 1.0 (9) | 2.6 ± 3.1 (9) | 0.0 ± 0.0 (9) |  | 5.1 ± 2.1 (12) | 4.6 ± 2.2 (12) | MIC [2]: 0.1 µg/mL (≈ 0.658 µM); Average defacement rating ± standard deviation (Stachybotrys chartarum; +10 μg/mL in Olympic Home paint, 7 days): 0.3 ± 0.6 (3); Average defacement rating ± standard deviation (Stachybotrys chartarum; +10 μg/mL in Olympic Home paint, 14 days): 0.0 ± 0.0 (3); Average defacement rating ± standard deviation (Stachybotrys chartarum; +10 μg/mL in Olympic Home paint, 21 days): 0.0 ± 0.0 (3); Average defacement rating ± standard deviation (Alternaria alternata; [6]): 9.7 ± 0.6 (3); Average defacement rating ± standard deviation (Alternaria alternata; [7]): 7.0 ± 4.4 (3); Average defacement rating ± standard deviation (Alternaria alternata; [8]): 6.3 ± 5.5 (3)
5 | CCCCNC(=O)OCC#CI [IPBC, 3-Iodo-2-propynylbutylcarbamate] |  |  |  |  |  |  |  | 156 mg/L (≈ 555 µM) | 1.2 ± 1.3 (9) | 0.0 ± 0.0 (9) | 0.0 ± 0.0 (9) | 6.9 ± 3.8 (9) | 4.8 ± 4.0 (9) | 3.1 ± 3.4 (9) | 5.9 ± 2.9 (9) | 3.1 ± 2.4 (9) | 3.0 ± 2.5 (9) | 3 day MIC (Aspergillus fumigatus): 0.4 µg/mL
6 | CCCCCCCCn1sccc1=O [OIT, 2-Octyl-4-isothiazolin-3-one] |  |  |  |  |  |  |  |  | 4.6 ± 3.2 (9) | 3.6 ± 3.7 (9) | 3.0 ± 3.7 (9) | 3.6 ± 2.8 (9) | 3.0 ± 3.7 (9) | 2.3 ± 40.0 (9) | 0.3 ± 0.5 (6) | 0.0 ± 0.0 (6) | 0.0 ± 0.0 (6) | 
7 | Oc1cc(Cl)ccc1Oc1ccc(Cl)cc1Cl [Triclosan, triclosan] |  |  |  |  |  |  |  | 12,000 mg/L | 0.7 ± 1.2 (9) | 0.7 ± 1.2 (9) | 0.6 ± 1.0 (9) | 0.9 ± 2.7 (9) | 0.0 ± 0.0 (9) | 0.0 ± 0.0 (9) | 3.6 ± 3.5 (9) | 2.6 ± 3.7 (9) | 2.0 ± 2.9 (9) | 
